Data as given in paper PMC11403733, “Asymmetric Dirhodium-Catalyzed Modification of Immunomodulatory Imide Drugs and Their Biological Assessment” (ACS Medicinal Chemistry Letters, 2024).
Values joined by “and” are separate entries in the source; they are usually repeats but may differ in a detail not shown here. Identical values can stand only once.

Legend:
CK1α = target: T1, CK1α (Homo sapiens, UniProt P48729+Q96SW2); experiment: ePL degradation assay, MDS-L/CK1α ePL OE_GSPT1G575N OE cells; format: cell-based; details: for EC50: degradation, 4 hr incubation, top conc 10 uM, N ≥ 3, read-out: CK1a EC50; for CK1a Ymin: depth of degradation (100% = no reduction, 0% = complete degradation), 4 hr, N ≥ 3
T1 construct: expressed in transfected cells; host or cells: MDS-L
T1 sequence (P48729 whole entry): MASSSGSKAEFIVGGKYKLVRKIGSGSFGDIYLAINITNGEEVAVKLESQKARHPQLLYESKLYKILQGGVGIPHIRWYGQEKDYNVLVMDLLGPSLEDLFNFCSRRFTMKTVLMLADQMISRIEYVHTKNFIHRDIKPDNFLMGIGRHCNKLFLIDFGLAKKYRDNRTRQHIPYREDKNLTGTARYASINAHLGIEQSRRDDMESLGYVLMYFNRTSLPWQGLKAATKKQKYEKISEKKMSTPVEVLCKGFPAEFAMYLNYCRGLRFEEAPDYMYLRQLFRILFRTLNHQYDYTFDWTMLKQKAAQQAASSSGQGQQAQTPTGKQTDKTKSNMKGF
T1 sequence (Q96SW2 whole entry): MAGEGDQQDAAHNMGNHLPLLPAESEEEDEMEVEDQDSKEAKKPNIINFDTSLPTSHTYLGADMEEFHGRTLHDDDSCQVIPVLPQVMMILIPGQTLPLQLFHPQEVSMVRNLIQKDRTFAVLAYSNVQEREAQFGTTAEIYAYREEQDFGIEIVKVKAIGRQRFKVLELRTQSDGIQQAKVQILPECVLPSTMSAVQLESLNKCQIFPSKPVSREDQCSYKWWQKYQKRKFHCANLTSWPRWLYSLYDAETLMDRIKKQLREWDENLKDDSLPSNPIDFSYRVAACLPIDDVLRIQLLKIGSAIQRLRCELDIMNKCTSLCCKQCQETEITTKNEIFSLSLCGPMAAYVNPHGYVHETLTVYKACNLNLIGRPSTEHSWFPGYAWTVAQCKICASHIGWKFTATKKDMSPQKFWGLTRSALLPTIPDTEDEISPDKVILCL
T1 sequence (Q16531 whole entry partner): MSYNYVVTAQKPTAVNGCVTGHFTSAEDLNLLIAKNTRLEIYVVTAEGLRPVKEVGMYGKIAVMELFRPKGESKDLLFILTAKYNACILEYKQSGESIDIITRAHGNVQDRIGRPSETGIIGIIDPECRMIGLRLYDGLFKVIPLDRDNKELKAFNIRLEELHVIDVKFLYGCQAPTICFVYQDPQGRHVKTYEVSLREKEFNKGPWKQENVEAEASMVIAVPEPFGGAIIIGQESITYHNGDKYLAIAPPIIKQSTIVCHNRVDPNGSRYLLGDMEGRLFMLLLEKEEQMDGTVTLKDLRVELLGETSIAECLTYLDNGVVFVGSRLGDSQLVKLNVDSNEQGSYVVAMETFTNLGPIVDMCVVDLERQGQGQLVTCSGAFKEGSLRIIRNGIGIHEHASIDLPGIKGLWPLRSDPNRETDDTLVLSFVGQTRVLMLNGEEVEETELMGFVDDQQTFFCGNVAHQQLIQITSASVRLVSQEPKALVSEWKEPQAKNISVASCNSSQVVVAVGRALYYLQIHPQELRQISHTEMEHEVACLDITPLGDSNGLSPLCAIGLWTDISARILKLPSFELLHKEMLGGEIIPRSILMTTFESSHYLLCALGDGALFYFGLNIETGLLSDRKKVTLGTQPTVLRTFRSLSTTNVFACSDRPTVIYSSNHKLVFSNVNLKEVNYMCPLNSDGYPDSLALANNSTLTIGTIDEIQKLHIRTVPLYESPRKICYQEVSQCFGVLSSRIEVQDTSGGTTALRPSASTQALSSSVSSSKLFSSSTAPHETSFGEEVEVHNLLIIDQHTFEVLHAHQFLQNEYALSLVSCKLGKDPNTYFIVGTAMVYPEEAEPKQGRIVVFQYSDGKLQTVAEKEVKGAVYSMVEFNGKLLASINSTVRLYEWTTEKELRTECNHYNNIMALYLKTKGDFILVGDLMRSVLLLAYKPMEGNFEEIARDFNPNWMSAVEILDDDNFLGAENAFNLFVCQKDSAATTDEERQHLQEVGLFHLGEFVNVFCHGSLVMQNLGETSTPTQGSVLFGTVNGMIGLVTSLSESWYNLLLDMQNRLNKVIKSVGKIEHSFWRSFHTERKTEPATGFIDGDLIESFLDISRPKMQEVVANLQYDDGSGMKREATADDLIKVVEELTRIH
Protocol: (§1) Section 6: Assay Protocols
(§2) Fluorescence Resonance Energy Transfer-Based NSD@ PWWP Cereblon Binding Assay. […]
(§3) Compounds for testing were spotted into a 1536 well plate (Greiner Cat#782075). CRBN and Tracer solution were incubated in compound wells for 20 minutes. Detection mix containing Anti6xHis Tb Crytate (CisBio Cat#61HI2TLF) was then added to assay wells for a final 0.5x assay concentration of detection antibody (stock is provided at 400x). Plates were incubated for 30 minutes before being read on Pherastar FSX plate reader using TR-FRET module (Excitation 340nm, Emssion 615/665nm). ePL and HiBiT degradation assays
(§4) DF15 cells overexpressing ePL tagged GSPT1 (DF15/GSPT1 ePL OE) was used to monitor the degradation of GSPT1 induced by experimental compounds. MDS-L cells overexpressing ePL tagged CK1α and GSPT1G575N (MDS-L/CK1α ePL OE_ GSPT1G575N OE) was used to monitor the degradation of CK1α induced by experimental compounds. NCCIT cells with HiBiT tag knocked in at the c-terminus of SALL4 (NCCIT/SALL4-HiBiT KI) was used to monitor the degradation of SALL4 induced by experimental compounds. DF15 cells with HiBiT tag knocked in at the n-terminus of IKZF3 (DF15/HiBiT-IKZF3 KI) was used to monitor the degradation of AIOLOS (IKZF3) induced by experimental compounds. […]
(§5) The cell culture medium recipes, seeding densities and compound incubation time with cells are […]
(§6) Ta r g e t Cell line Cell culture medium Seeding Compound
(§7) (HI) FBS, 1mM sodium pyruvate, 25mM Hepes, 0.1% pluronic acid,
(§8) GSPT1G575N OE ng/mL of human recombinant IL3 […]
(§9) sodium pyruvate, 25mM Hepes, 0.1% pluronic acid, 1X NEAA
(§10) For all degradation assays, compounds were pre-spotted in a 153 6 well plate (Corning 3727) starting at 10uM with 3-fold serial dilution down 11 points in replicates using an Echo 650 series acoustic liquid handler. 5uL/well cells were seeded in the assay ready plate at the density and in […]
(§11) The final DMSO concentration in the cell culture was 0.25%. The plates were equilibrated at room temperature for 30 minutes before putting into a 37 °C CO2 incubator. After appropriate incubation period, plates were retrieved from the incubator and set at room temperature to equilibrate for 30 minutes, before adding ePL or HiBiT detection reagent. For ePL detection, the pre-prepared mixture of EA reagent, lysis buffer, and substrate reagent at ratio 1:1:4 from the DiscoverX InCELL Detection Kit (Eurofins 96-0079L) according to the manufacturer ’s recommendation was added 3ul/well into the plate. Plates were incubated in the dark for 1hr at room temperature before reading using a BMG PheraStar luminescence reader. For HiBiT detection, Nano-Glo HiBiT Lytic Reagent (Promega, N3050) prepared according to the manufacturer ’s recommendation was added 3 uL/well into the plate. Plates were incubated 30 minutes at room temperature in the dark before reading using a BMG PheraStar […]
(§12) To determine EC50 values for degradation, a four parameter logistic model (Sigmoidal Dose-Response Model) (FIT= (A+((B-A)/1+((C/x)^D)))) C is the inflection point (EC50), D is […] , A and B are the low and high limits of the fit respectively) was used to determine the compound’s EC50 value, which is the half maximum effective concentration. In the degradation assays, the Yconst of each compound was calculated by normalizing the lowest point of the fitted curve to the media only control, which is 0%, and the cells treated with DMSO control, which is 100%. All degradation curves were processed and evaluated using Dotmatics.
(§13) Section 7: Biological Data Tables

IKZF3 (Aiolos) = target: T2, IKZF3 (Aiolos) (Homo sapiens, UniProt Q96SW2+Q9UKT9); experiment: HiBiT degradation assay, DF15/HiBiT-IKZF3 KI cells; format: cell-based; details: N ≥ 3; for EC50: degradation, 4 hr incubation, top conc 10 uM; for IKZF3 Ymin: depth of degradation (100% = no reduction of protein level, 0% = complete degradation), 4 hr
T2 construct: endogenous in cells; host or cells: DF15 (HiBiT knock-in)
T2 sequence (Q9UKT9 whole entry): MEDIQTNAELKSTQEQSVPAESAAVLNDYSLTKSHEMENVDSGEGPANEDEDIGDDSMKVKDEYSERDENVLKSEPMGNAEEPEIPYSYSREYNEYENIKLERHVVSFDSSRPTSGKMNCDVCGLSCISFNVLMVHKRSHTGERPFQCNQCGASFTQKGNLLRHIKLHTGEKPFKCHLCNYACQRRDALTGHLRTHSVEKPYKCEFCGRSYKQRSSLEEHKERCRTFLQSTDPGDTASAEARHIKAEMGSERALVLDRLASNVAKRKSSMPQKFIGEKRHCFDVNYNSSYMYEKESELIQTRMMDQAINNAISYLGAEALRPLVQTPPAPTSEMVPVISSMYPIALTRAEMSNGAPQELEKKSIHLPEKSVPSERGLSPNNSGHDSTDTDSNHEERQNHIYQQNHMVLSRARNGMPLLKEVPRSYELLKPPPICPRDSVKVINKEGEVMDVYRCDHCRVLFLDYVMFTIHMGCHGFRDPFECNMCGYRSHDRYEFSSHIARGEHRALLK
T2 sequence (Q96SW2 whole entry): as the sequence (Q96SW2 whole entry) above
T2 sequence (Q16531 whole entry partner): as the sequence (Q16531 whole entry partner) above
Protocol: as §1, §2, §3, §4, §5, §6, §7, §8, §9, §10, §11, §12, §13

CRBN = target: T3, CRBN (Homo sapiens, UniProt Q96SW2); experiment: Fluorescence Resonance Energy Transfer-Based Cereblon Binding Assay (CRBN HTRF); details: 0.5 nM 6×His-CRBN-DDB1, 20 nM tracer CC0782985, TR-FRET
T3 construct: (CRBN a.a. 1−442, DDB1 a.a); made in house
T3 sequence (Q96SW2 whole entry): as the sequence (Q96SW2 whole entry) above
T3 sequence (Q16531 whole entry partner): as the sequence (Q16531 whole entry partner) above
Protocol: as §1, §2, §3, §4

SALL4 = target: T4, SALL4 (Homo sapiens, UniProt Q96SW2+Q9UJQ4); experiment: HiBiT degradation assay, NCCIT/SALL4-HiBiT KI cells; format: cell-based; details: N ≥ 3; for EC50: degradation, 2 hr incubation, top conc 10 uM; for SALL4 Ymin: depth of degradation (100% = no reduction, 0% = complete degradation), 2 hr
T4 construct: endogenous in cells; host or cells: NCCIT (HiBiT knock-in)
T4 sequence (Q9UJQ4 whole entry): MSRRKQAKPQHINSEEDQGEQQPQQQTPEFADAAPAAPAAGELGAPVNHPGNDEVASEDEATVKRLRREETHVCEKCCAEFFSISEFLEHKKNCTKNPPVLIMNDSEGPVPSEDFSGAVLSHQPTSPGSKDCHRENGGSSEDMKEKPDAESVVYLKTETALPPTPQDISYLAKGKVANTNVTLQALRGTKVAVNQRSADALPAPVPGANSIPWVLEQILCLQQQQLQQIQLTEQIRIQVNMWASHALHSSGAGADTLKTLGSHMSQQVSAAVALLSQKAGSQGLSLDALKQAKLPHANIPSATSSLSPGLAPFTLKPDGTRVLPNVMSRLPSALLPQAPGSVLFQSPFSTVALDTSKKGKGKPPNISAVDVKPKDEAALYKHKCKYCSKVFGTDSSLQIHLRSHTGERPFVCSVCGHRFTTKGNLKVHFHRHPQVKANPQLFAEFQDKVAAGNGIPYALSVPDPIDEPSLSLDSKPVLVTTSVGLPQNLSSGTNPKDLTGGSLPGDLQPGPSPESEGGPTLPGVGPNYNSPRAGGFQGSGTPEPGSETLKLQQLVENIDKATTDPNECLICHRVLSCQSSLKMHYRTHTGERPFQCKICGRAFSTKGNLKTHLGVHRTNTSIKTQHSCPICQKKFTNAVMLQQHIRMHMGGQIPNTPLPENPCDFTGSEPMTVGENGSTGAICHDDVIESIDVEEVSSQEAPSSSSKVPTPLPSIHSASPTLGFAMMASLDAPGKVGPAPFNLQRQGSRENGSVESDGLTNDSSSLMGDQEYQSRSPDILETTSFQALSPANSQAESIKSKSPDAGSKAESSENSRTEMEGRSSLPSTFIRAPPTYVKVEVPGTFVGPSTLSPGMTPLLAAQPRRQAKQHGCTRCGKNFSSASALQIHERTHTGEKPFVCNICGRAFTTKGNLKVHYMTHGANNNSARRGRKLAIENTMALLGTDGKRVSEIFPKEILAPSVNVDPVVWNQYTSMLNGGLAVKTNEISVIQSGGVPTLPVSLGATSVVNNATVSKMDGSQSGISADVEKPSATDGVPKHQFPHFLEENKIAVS
T4 sequence (Q96SW2 whole entry): as the sequence (Q96SW2 whole entry) above
T4 sequence (Q16531 whole entry partner): as the sequence (Q16531 whole entry partner) above
Protocol: as §1, §2, §3, §4, §5, §6, §7, §8, §9, §10, §11, §12, §13

GSPT1 = target: T5, GSPT1 (Homo sapiens, UniProt P15170+Q96SW2); experiment: ePL degradation assay, DF15/GSPT1 ePL OE cells; format: cell-based; details: N ≥ 3; for EC50: degradation, 20 hr incubation, top conc 10 uM; for GSPT1 Ymin: depth of degradation (100% = no reduction, 0% = complete degradation), 20 hr
T5 construct: expressed in transfected cells; host or cells: DF15
T5 sequence (P15170 1-637 isoform P15170-3): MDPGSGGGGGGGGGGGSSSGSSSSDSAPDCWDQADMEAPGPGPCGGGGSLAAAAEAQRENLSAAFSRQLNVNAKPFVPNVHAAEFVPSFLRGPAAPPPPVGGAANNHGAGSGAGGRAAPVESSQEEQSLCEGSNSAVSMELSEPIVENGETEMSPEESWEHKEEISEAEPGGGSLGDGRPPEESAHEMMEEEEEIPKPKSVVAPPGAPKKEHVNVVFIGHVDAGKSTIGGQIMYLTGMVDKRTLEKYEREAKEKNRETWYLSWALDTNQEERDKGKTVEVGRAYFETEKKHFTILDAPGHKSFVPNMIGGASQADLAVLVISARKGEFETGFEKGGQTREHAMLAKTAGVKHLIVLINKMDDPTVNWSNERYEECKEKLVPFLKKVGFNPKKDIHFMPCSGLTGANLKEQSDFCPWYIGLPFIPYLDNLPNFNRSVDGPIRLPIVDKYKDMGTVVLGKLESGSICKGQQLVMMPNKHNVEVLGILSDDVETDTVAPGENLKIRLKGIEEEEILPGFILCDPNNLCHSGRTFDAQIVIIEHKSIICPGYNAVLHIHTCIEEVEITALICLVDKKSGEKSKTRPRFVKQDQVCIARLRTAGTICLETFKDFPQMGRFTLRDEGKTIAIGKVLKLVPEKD
T5 sequence (Q96SW2 whole entry): as the sequence (Q96SW2 whole entry) above
T5 sequence (Q16531 whole entry partner): as the sequence (Q16531 whole entry partner) above
Protocol: as §1, §2, §3, §4, §5, §6, §7, §8, §9, §10, §11, §12, §13

Row | Structure (SMILES) | EC50 (CK1α) [µM] | CK1a Ymin (CK1α) [%] | EC50 (IKZF3 (Aiolos)) | IKZF3 Ymin (IKZF3 (Aiolos)) | IC50 (CRBN) [µM] | EC50 (SALL4) [µM] | SALL4 Ymin (SALL4) [%] | EC50 (GSPT1) [µM] | GSPT1 Ymin (GSPT1) [%]
1 | O=C1CCC(N2Cc3c(cccc3C3=C[C@@]3(C(=O)OCC(Cl)(Cl)Cl)c3ccc(Br)cc3)C2=O)C(=O)N1 (some centres unmarked) [Compound 19b] | 1.5 ± 1.1 | 60 ± 7.4 | 0.11 ± 0.05 µM | 69 ± 3.3% and 69% | 0.35 | 0.17 ± 0.06 | 35 ± 5.9 | 0.55 ± 0.47 | 66 ± 5.5
2 | O=C1CCC(N2Cc3cc([C@H]4C[C@@]4(C(=O)OCC(Cl)(Cl)Cl)c4ccc(Br)cc4)ccc3C2=O)C(=O)N1 (some centres unmarked) [Compound 15b] | 0.22 ± 0.089 |  | > 10 µM | 89 ± 5.0% | 1.3 | 0.16 ± 0.05 | 67 ± 5.4 | > 10 | 83 ± 7.0
3 | O=C1CCC(N2C(=O)c3ccc(C4=C[C@]4(C(=O)OCC(Cl)(Cl)Cl)c4ccc(Br)cc4)cc3C2=O)C(=O)N1 (some centres unmarked) [Compound 22a] | 1.2 ± 1.2 | 60 ± 26 | 1.3 ± 2.1 µM | 73 ± 6.2% | 5.7 | 3.6 ± 0.74 | 67 ± 7.8 | 1.1 ± 0.69 | 
4 | O=C1CCC(N2Cc3cc([C@@H]4C[C@]4(C(=O)OCC(Cl)(Cl)Cl)c4ccc(Br)cc4)ccc3C2=O)C(=O)N1 (some centres unmarked) [Compound 15a] | > 10 |  | > 10 µM | 100 ± 4.6% | 0.39 | > 10 | 99 ± 1.2 | > 10 | 96 ± 7.8
5 | O=C1CCC(N2Cc3cc(C4=C[C@@]4(C(=O)OCC(Cl)(Cl)Cl)c4ccc(Br)cc4)ccc3C2=O)C(=O)N1 (some centres unmarked) [Compound 21b] | 0.25 ± 0.37 | 57 ± 8.0 | 4.8 ± 2.6 µM | 79 ± 6.4% | 0.8 | 0.075 ± 0.05 | 68 ± 2.1 | 3.3 ± 3 | 7.7 ± 4.7
6 | O=C1CCC(N2Cc3cccc([C@@H]4C[C@]4(C(=O)OCC(Cl)(Cl)Cl)c4ccc(Br)cc4)c3C2=O)C(=O)N1 (some centres unmarked) [Compound 18a] | > 10 | 89 ± 1.7 | > 10 µM | 91 ± 0.6% | > 10 | > 10 | 93 ± 3.8 | > 10 | 87 ± 6.5
7 | O=C1CCC(N2C(=O)c3cccc(C4=C[C@@]4(C(=O)OCC(Cl)(Cl)Cl)c4ccc(Br)cc4)c3C2=O)C(=O)N1 (some centres unmarked) [Compound 20b] | 2.1 ± 1.3 | 54 ± 8.9 | 3.7 µM and 3.67 µM | 10 ± 8.2% and 10% |  | 2.8 ± 1.6 | 57 ±7.7 | 5.1 ± 1.4 | 17 ± 13
8 | O=C1CCC(N2Cc3ccc(C4=C[C@]4(C(=O)OCC(Cl)(Cl)Cl)c4ccc(Br)cc4)cc3C2=O)C(=O)N1 (some centres unmarked) [Compound 23a] | > 10 | 93 ± 10 | > 10 µM | 94 ± 2.3% | 0.98 | > 10 | 95 ± 6.5 | > 10 | 82 ± 7.1
9 | O=C1CCC(N2Cc3c(cccc3[C@@H]3C[C@]3(C(=O)OCC(Cl)(Cl)Cl)c3ccc(Br)cc3)C2=O)C(=O)N1 (some centres unmarked) [Compound 13a] | > 10 | 87 ± 0.55 | > 10 µM and 1.86 µM |  | 0.66 | > 10 | 85 ± 7.3 | > 10 | 92 ± 7.8
10 | O=C1CCC(N2Cc3cc(C4=C[C@]4(C(=O)OCC(Cl)(Cl)Cl)c4ccc(Br)cc4)ccc3C2=O)C(=O)N1 (some centres unmarked) [Compound 21a] | > 10 | 89 ± 9.3 | > 10 µM | 95 ± 7.6% | 0.59 | > 10 | 89 ± 4.2 | > 10 | 81 ± 17
11 | O=C1CCC(N2C(=O)c3ccc(C4=C[C@@]4(C(=O)OCC(Cl)(Cl)Cl)c4ccc(Br)cc4)cc3C2=O)C(=O)N1 (some centres unmarked) [Compound 22b] | 1.6 ± 0.71 | 55 ± 39 | 0.31 ± 0.11 µM | 71 ± 9.7% | 7.8 | 2.4 ± 1.7 | 58 ± 3.2 |  | 
12 | O=C1CCC(N2Cc3ccc([C@H]4C[C@@]4(C(=O)OCC(Cl)(Cl)Cl)c4ccc(Br)cc4)cc3C2=O)C(=O)N1 (some centres unmarked) [Compound 17b] | > 10 | 96 ± 12 | > 10 µM | 89 ± 6.5% | 2.5 | > 10 | 96 ± 3.1 | > 10 | 93 ± 5.8
13 | O=C1CCC(N2Cc3cccc(C4=C[C@]4(C(=O)OCC(Cl)(Cl)Cl)c4ccc(Br)cc4)c3C2=O)C(=O)N1 (some centres unmarked) [Compound 24a] | > 10 | 96 ± 12 | > 10 µM | 97 ± 0.58% | 2.4 | > 10 | 95 ± 5.0 | > 10 | 85 ± 24
14 | O=C1CCC(N2C(=O)c3ccc([C@@H]4C[C@]4(C(=O)OCC(Cl)(Cl)Cl)c4ccc(Br)cc4)cc3C2=O)C(=O)N1 (some centres unmarked) [Compound 16a] | > 10 | 94 ± 9.9 | > 10 µM | 94 ± 8.3% | 5.3 | > 10 | 92 ± 8.2 | > 10 | 
15 | O=C1CCC(N2C(=O)c3cccc([C@H]4C[C@@]4(C(=O)OCC(Cl)(Cl)Cl)c4ccc(Br)cc4)c3C2=O)C(=O)N1 (some centres unmarked) [Compound 14b] | > 10 | 94 ± 5.1 | > 10 µM |  | 7.9 | > 10 | 87 ± 13 | > 10 | 87 ± 11
16 | O=C1CCC(N2Cc3cccc([C@H]4C[C@@]4(C(=O)OCC(Cl)(Cl)Cl)c4ccc(Br)cc4)c3C2=O)C(=O)N1 (some centres unmarked) [Compound 18b] | > 10 | 91 ± 7.1 | > 10 µM | 96 ± 5.7% | > 10 | > 10 | 96 ± 5.4 | > 10 | 83 ± 15
17 | O=C1CCC(N2Cc3c(cccc3C3=C[C@]3(C(=O)OCC(Cl)(Cl)Cl)c3ccc(Br)cc3)C2=O)C(=O)N1 (some centres unmarked) [Compound 19a] | 0.17 ± 0.18 | 64 ± 4.3 | 0.012 µM |  | 0.16 | 0.019 ± 0.01 | 23 ± 4.5 | 0.17 ± 0.13 | 64 ± 8.7
